Series [1] can be described thus: Host cell toxicity by nuclei counting in the phenotypic high-content imaging assay. As to conditions: mouse. The method, then: C2C12 mouse myoblasts (ATCC CRL-1772) and CA-I/72 T. cruzi (kindly donated by J. Dvorak, NIH) were cultured in Dulbecco’s Modified Eagle Medium (Invitrogen, Carlsbad, CA, USA), supplemented with 5% fetal bovine serum (Sigma Aldrich, St. Louis, MO, USA) and 1% penicillin-streptomycin (Invitrogen, Carlsbad, CA, USA) at 37 °C and 5% CO2 essentially as described. Passaging of CA-I/72 T. cruzi was conducted weekly via co-culture with C2C12 host cells.
Compounds from the ReFRAME library, benznidazole (Sigma Alderich, St. Louis, MO, USA) and DMSO (Sigma Alderich, St. Louis, MO, USA), were transferred to black 1536-well plates (Greiner Bio One, Kremsmünster, Austria) with clear bottoms using an Acoustic Transfer System (ATS) instrument (EDC Biosystems, Fremont, CA, USA). C2C12 cells were seeded at a density of 100 cells per well, and CA-I/72 T. cruzi parasites were seeded at a density of 1500 cells per well, using a Multidrop Combi liquid handler (Thermo Scientific, Waltham, MA, USA). Plates were incubated at 37 °C and 5% CO2 for 72 h in humidified trays to reduce edge effect. Following this incubation, paraformaldehyde (4% final concentration) in 1× phosphate buffered saline (PBS, Invitrogen, 10010023) was used to fix the cells for 1 h. The cells were then subsequently treated with 5 µg/mL DAPI staining solution (Sigma Aldrich, D9542) for 1 h. Next, the plates were imaged using an ImageXpress Micro XLS automated high-content imager (Molecular Devices, San Jose, CA, USA), using the 10× fluorescence objective. Images were analyzed automatically using a custom image analysis module.
Compounds from the ReFRAME library were pre-spotted on 1536 clear-bottom black well plates in 100% dimethylsulfoxide (DMSO) for a final concentration of 10 µM in 10 µL final volume (and 0.1% DMSO final concentration). C2C12 mouse myoblasts and CA-I/72 strain T. cruzi trypomastigotes were added to the plate in a 1:15 infection ratio and incubated for 72 h at 37 °C and 5% CO2. Cells were then fixed with 4% paraformaldehyde (final concentration), and stained with 5 µg/mL of 4’,6-diamidino-2-phenylindole (DAPI) to highlight the nuclei from the host cells and parasites. Using an ImageXpress Micro XLS automated microscope (10× magnification setting), fluorescence images of C2C12 and T. cruzi amastigote nuclei were acquired for each well, and the number of host cell nuclei and amastigote nuclei were automatically determined using a custom image analysis module as previously described (Figure 1). Parasite amastigote nuclei were selectively counted over trypomastigote nuclei, via distance gating of parasitic nuclei distance from host cell nuclei in the microscopy images.
Infection levels were calculated as a ratio of the number of T. cruzi amastigotes per C2C12 host cell, as determined by nuclei counting. Compound toxicity was determined by dividing the number of host cell nuclei in a drug-treated well by the average of the vehicle controls. For both infection ratios and cell viability ratios, values were normalized to the vehicle controls to determine percent activity and toxicity, respectively. Control wells containing uninfected C2C12 cells, infected C2C12 cells with 0.1% DMSO, and infected C2C12 cells with 0.1% DMSO and 50 µM benznidazole were prepared in each plate for data normalization. […] Hit selection cutoffs for the primary screen were set at 70% antiparasitic activity (70% parasite reduction compared to untreated controls) and 50% host cell viability at 10 µM compound compared to untreated controls (represents approximately three standard deviations from the average of the untreated controls).

The next series deals with CA-I/72 T. cruzi. The series is described as follows: Phenotypic high-content imaging assay, intracellular T. cruzi amastigotes in C2C12 host cells. Format: cell-based, Trypanosoma cruzi. As to conditions: for Selectivity Index (SI): SI = CC50 (C2C12) / EC50 (T. cruzi CA-I/72); for EC50: Trypanosoma cruzi, read-out: EC50 CA-I/72 T. cruzi.
Setting [2] is: C2C12 mouse myoblasts co-cultured with CA-I/72 T. cruzi.
[3] abbreviates: intracellular amastigotes in C2C12, 72 h, 10-point 3-fold dose response in duplicate, +/- SE.

Molecules are shown by their SMILES. Like-named read-outs stand apart in the source and are kept apart here.

Method for CA-I/72 T. cruzi: C2C12 mouse myoblasts (ATCC CRL-1772) and CA-I/72 T. cruzi (kindly donated by J. Dvorak, NIH) were cultured in Dulbecco’s Modified Eagle Medium (Invitrogen, Carlsbad, CA, USA), supplemented with 5% fetal bovine serum (Sigma Aldrich, St. Louis, MO, USA) and 1% penicillin-streptomycin (Invitrogen, Carlsbad, CA, USA) at 37 °C and 5% CO2 essentially as described [11]. Passaging of CA-I/72 T. cruzi was conducted weekly via co-culture with C2C12 host cells.
Compounds from the ReFRAME library, benznidazole (Sigma Alderich, St. Louis, MO, USA) and DMSO (Sigma Alderich, St. Louis, MO, USA), were transferred to black 1536-well plates (Greiner Bio One, Kremsmünster, Austria) with clear bottoms using an Acoustic Transfer System (ATS) instrument (EDC Biosystems, Fremont, CA, USA). C2C12 cells were seeded at a density of 100 cells per well, and CA-I/72 T. cruzi parasites were seeded at a density of 1500 cells per well, using a Multidrop Combi liquid handler (Thermo Scientific, Waltham, MA, USA). Plates were incubated at 37 °C and 5% CO2 for 72 h in humidified trays to reduce edge effect. Following this incubation, paraformaldehyde (4% final concentration) in 1× phosphate buffered saline (PBS, Invitrogen, 10010023) was used to fix the cells for 1 h. The cells were then subsequently treated with 5 µg/mL DAPI staining solution (Sigma Aldrich, D9542) for 1 h. Next, the plates were imaged using an ImageXpress Micro XLS automated high-content imager (Molecular Devices, San Jose, CA, USA), using the 10× fluorescence objective. Images were analyzed automatically using a custom image analysis module [9, 11].
Compounds from the ReFRAME library were pre-spotted on 1536 clear-bottom black well plates in 100% dimethylsulfoxide (DMSO) for a final concentration of 10 µM in 10 µL final volume (and 0.1% DMSO final concentration). C2C12 mouse myoblasts and CA-I/72 strain T. cruzi trypomastigotes were added to the plate in a 1:15 infection ratio and incubated for 72 h at 37 °C and 5% CO2. Cells were then fixed with 4% paraformaldehyde (final concentration), and stained with 5 µg/mL of 4’,6-diamidino-2-phenylindole (DAPI) to highlight the nuclei from the host cells and parasites. Using an ImageXpress Micro XLS automated microscope (10× magnification setting), fluorescence images of C2C12 and T. cruzi amastigote nuclei were acquired for each well, and the number of host cell nuclei and amastigote nuclei were automatically determined using a custom image analysis module as previously described [9, 10, 11] […] Parasite amastigote nuclei were selectively counted over trypomastigote nuclei, via distance gating of parasitic nuclei distance from host cell nuclei in the microscopy images.

Consider `COc1ccccc1N1CCN(CCCCn2c(=O)sc3cc(CCN4CCC(C(=O)c5ccc(F)cc5)CC4)ccc32)CC1` [3-[4-[4-(2-Methoxyphenyl)piperazine-1-yl]butyl]-6-[2-[4-(4-fluorobenzoyl)piperidine-1-yl]ethyl]benzothiazole-2(3H)-one], for which, in series [1] (setting [2]), the CC50 at 72 h is 3190 nM. In the series on CA-I/72 T. cruzi, the “Selectivity Index (SI)” value is 145. In addition, the EC50 with CA-I/72 T. cruzi (setting [3]) was found to be 22 nM.

As for `C=C(NNC(=S)NNC(=S)Nc1ccccc1Cl)c1ccccn1` [348U87, 2-acetylpyridine 5-[(2-chloroanilino)-thiocarbonyl]-thiocarbonohydrazone], in series [1] (setting [2]), the CC50 at 72 h was 815 nM. For the same compound, in the series with CA-I/72 T. cruzi, the “Selectivity Index (SI)” value was 1294. Moreover, in the series with CA-I/72 T. cruzi (setting [3]), the EC50 stood at 0.63 nM.

The compound `C=CC(=O)N1CC[C@@H](Oc2nc(Nc3ccc(N4CCC(N5CCN(C)CC5)CC4)cc3)c(C(N)=O)nc2CC)C1` [ASP-8273, naquotinib] came in with a CC50 at 72 h in series [1] (setting [2]) of 515 nM. In addition, the “Selectivity Index (SI)” value with CA-I/72 T. cruzi is 191. The EC50 in the series on CA-I/72 T. cruzi (setting [3]) was found to be 2.7 nM.

Compound `O=P(O)(O)C(NC1CCCCCC1)P(=O)(O)O` [Incadronate Disodium, incadronate disodium] registered a CC50 at 72 h in series [1] of more than 10000 nM. Further, in the series on CA-I/72 T. cruzi, the “Selectivity Index (SI)” value was more than 20. Besides, the EC50 in the series on CA-I/72 T. cruzi (setting [3]) was 480 nM.

As for `COc1cc2c3c(n(CCCNCCO)c(=O)c2cc1OC)-c1cc2c(cc1C3=O)OCO2` [NSC-706744], the CC50 at 72 h in series [1] is 94 nM. Further, in the series on CA-I/72 T. cruzi, the “Selectivity Index (SI)” value is given as 214. Besides, in the series with CA-I/72 T. cruzi (C2C12, 72 h), the EC50 stood at 0.44 nM.

For `N#Cc1ccc(Cn2cncc2CN2CCN(c3cccc(Cl)c3)C(=O)C2)cc1Oc1ccccc1` [Prenyl-IN-1], the CC50 at 72 h in series [1] (setting [2]) came to 182 nM. Further, the “Selectivity Index (SI)” value in the series with CA-I/72 T. cruzi was 10. Further, in the series with CA-I/72 T. cruzi (setting [3]), the EC50 was found to be 18 nM.

With `Cc1cccc2nc3cccc(C(=O)NCCNCCNCCNC(=O)c4cccc5nc6cccc(C)c6nc45)c3nc12` [XR 5944], the CC50 at 72 h in series [1] (setting [2]) was determined as 46 nM. Besides, the “Selectivity Index (SI)” value with CA-I/72 T. cruzi was 13. Also, in the series with CA-I/72 T. cruzi (setting [3]), the EC50 was found to be 3.5 nM.

(Values after paper PMC7232187, “High-Throughput Screening of the ReFRAME Library Identifies Potential Drug Repurposing Candidates for Trypanosoma cruzi” (Microorganisms, 2020).)
